According to patent US11780843B2, “Compounds active towards nuclear receptors” (NUEVOLUTION A/S, priority 2020, dated 2023):
Like-named read-outs stand apart in the source and are kept apart here.

Tests used:
[1] = target: T1, RORγ ligand-binding domain (Homo sapiens, UniProt P51449); assay: RORγ Reporter Assay (Gal4); format: cell-based
T1 construct: Gal4 (galactose-responsive transcription factor); expressed in transfected cells; host or cells: HEK293, transient co-transfection
T1 sequence (P51449 269-508 limits assumed): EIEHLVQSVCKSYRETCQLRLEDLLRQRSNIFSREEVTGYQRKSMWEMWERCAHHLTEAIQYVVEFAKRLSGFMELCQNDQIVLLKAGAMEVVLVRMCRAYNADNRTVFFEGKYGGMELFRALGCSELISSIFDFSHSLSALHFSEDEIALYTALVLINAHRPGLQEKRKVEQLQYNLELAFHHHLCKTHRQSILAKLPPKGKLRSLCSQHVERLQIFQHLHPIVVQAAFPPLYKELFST
Procedure: The HEK293 cell line is co-transfected transiently with two plasmids, one with the RORγ ligand-binding domain fused to galactose-responsive transcription factor (Ga14), and the other with the luciferase reporter gene and Gal binding sites (UAS). This construction allows to determine the RORT activity in a cellular system through the measurement of luminescence.
A suspension of RORγ reporter cells was dispensed into plates and cultured 2 h at 37° C. and 5% CO2. Media formulation consisted in DMEM/F-12 medium (Gibco) supplemented with 10% heat inactivated FBS (Sigma-Aldrich), non-essential aminoacids (Sigma-Aldrich), 2 mM Glutamax (Gibco) and 100 U/mL penicillin (Sigma-Aldrich). Dose-response curves with compounds were prepared in 100% DMSO and further diluted 100-fold in culture medium. Compound solutions were added to the plate containing cells (final DMSO concentration of 0.1%) and incubated for 24 h at 37° C. and 5% CO2. Luciferase detection reagent was added to each well, and relative light units (RLUs) were quantified from each assay well using a plate reading luminometer.
Values of average RLU±S.D. were computed for all treatment sets, followed by the calculations of percent-reduction of RORT activity in response to respective test compound. The following formula was used: activity=100*[1−[[…]] where the theoretical minimum reduction (0% reduction). […] These calculations were performed in excel-fit software using X-204 model curve.

[2] = tested on: IL-17A secretion in activated PBMCs; assay: IL-17A secretion in activated PBMCs; format: cell-based; conditions: Homo sapiens, PBMC, 48 h, human PBMCs stimulated with CD3/CD28 Dynabeads for 48 h, absolute IC50
Description: Heparin-treated whole blood from healthy human volunteers was supplied from Hospital de Sant Pau (Barcelona) under the approval of the local ethical review board for human studies (Hospital de Sant Pau, Barcelona, Spain). Human peripheral blood mononuclear cells (PBMCs) were isolated from healthy human volunteers by density gradient centrifugation using the Ficoll-Paque (GE Healthcare). PBMCs were suspended in cell culture medium which consisted on RPMI 1640 medium (Sigma-Aldrich) containing 10% heat inactivated fetal bovine serum (Sigma-Aldrich), 2 mM L-Glutamine (Gibco), 20 mM Hepes (Gibco) and 100 U/mL penicillin (Sigma-Aldrich). Cells were seeded in 384-well plate (DiscoverX), at 40,000 cells per well and cultured 2 h at 37° C. and 5% CO2.
Dose-response curves with compounds were prepared using a 5-fold serial dilution (10 concentrations) in 100% DMSO and further diluted 100-fold in culture medium. Compound solutions (5 μL) were added to the plate containing cells (final DMSO concentration of 0.1%) and incubated for 30 min. Then, cells were stimulated with CD3/CD28 Dynabeads (ThermoFisher, at a bead-to-cell ratio of 1:1) for 48 h at 37° C. and 5% CO2.
IL-17A levels in supernatant were determined by immunoassay using hIL17A QBeads (Intellicyt) and by fluorescence analysis in iQue flow cytometer following the manufacturer's instructions. Inhibition of IL-17A secretion was calculated using the following formula: inhibition=100*[1−[(x−mean basal condition)/(mean top condition—mean basal condition)]]. Activated DMSO-treated cells were used as top condition and activated GNE09461 (10 μM)-treated cells as basal condition.

[3] = HEK293 cells, luciferase reporter, 24 h incubation, absolute IC50, read-out: IC50

IC50 [1, 3] [nM] | IC50 ([1]; stated as a bound only (Tables 5 a, 6, 7), read-out: Gal4 assay IC50) [nM] | SMILES | IC50 [2] [nM]
5.2 | – | CN(Cc1ccc(C(F)(F)F)cc1)c1ncnc2c1c(F)cn2C[C@@H]1CCN(CC(N)=O)C[C@H]1O (racemic) [Example P6-12, rac-2-((3R,4R)-4-((5-fluoro-4-(methyl(4-(trifluoromethyl)benzyl)amino)-7H-pyrrolo[2,3-d]pyrimidin-7-yl)methyl)-3-hydroxypiperidin-1-yl)acetamide] | 30
0.9 | – | NC(=O)CN1CC[C@@H](Cn2ccc3c(N(Cc4ccc(C(F)(F)F)cc4)C4CC4)ncnc32)[C@H](O)C1 (racemic) [Example P6-13, rac-2-((3R,4R)-4-((4-(cyclopropyl(4-(trifluoromethyl)benzyl)amino)-7H-pyrrolo[2,3-d]pyrimidin-7-yl)methyl)-3-hydroxypiperidin-1-yl)acetamide] | 1.5
1 | – | NC(=O)CN1CC[C@@H](Cn2cc(F)c3c(N(Cc4ccc(C(F)(F)F)cc4)C4CC4)ncnc32)[C@H](O)C1 (racemic) [Example P6-14, rac-2-((3R,4R)-4-((4-(cyclopropyl(4-(trifluoromethyl)benzyl)amino)-5-fluoro-7H-pyrrolo[2,3-d]pyrimidin-7-yl)methyl)-3-hydroxypiperidin-1-yl)acetamide] | 2.2
10 | – | NC(=O)CN1CC[C@@H](Cn2cc(F)c3c(N(Cc4ccc(C(F)(F)F)nc4)C4CC4)ncnc32)[C@H](O)C1 (racemic) [Example P6-15, rac-2-((3R,4R)-4-((4-(cyclopropyl((6-(trifluoromethyl)pyridin-3-yl)methyl)amino)-5-fluoro-7H-pyrrolo[2,3-d]pyrimidin-7-yl)methyl)-3-hydroxypiperidin-1-yl)acetamide] | 18
5 | – | NC(=O)CN1CC[C@@H](Cn2ccc3c(N(Cc4ccc(C(F)(F)F)nc4)C4CC4)ncnc32)[C@H](O)C1 (racemic) [Example P6-16, rac-2-((3R,4R)-4-((4-(cyclopropyl((6-(trifluoromethyl)pyridin-3-yl)methyl)amino)-7H-pyrrolo[2,3-d]pyrimidin-7-yl)methyl)-3-hydroxypiperidin-1-yl)acetamide] | 17
4.6 | – | NC(=O)CN1CC[C@@H](Cn2cc(F)c3c(N(Cc4ccc(C(F)(F)F)cn4)C4CC4)ncnc32)[C@H](O)C1 (racemic) [Example P6-18, rac-2-((3R,4R)-4-((4-(cyclopropyl((5-(trifluoromethyl)pyridin-2-yl)methyl)amino)-5-fluoro-7H-pyrrolo[2,3-d]pyrimidin-7-yl)methyl)-3-hydroxypiperidin-1-yl)acetamide] | 14
9.8 | – | CC(C)N(Cc1ccc(C(F)(F)F)cc1)c1ncnc2c1c(F)cn2C[C@@H]1CCN(CC(N)=O)C[C@H]1O (racemic) [Example P6-19, rac-2-((3R,4R)-4-((5-fluoro-4-(isopropyl(4-(trifluoromethyl)benzyl)amino)-7H-pyrrolo[2,3-d]pyrimidin-7-yl)methyl)-3-hydroxypiperidin-1-yl)acetamide] | 15
6.6 | – | CCN(Cc1ccc(C(F)(F)F)cc1)c1ncnc2c1c(F)cn2C[C@@H]1CCN(CC(N)=O)C[C@H]1O (racemic) [Example P6-21, rac-2-((3R,4R)-4-((4-(ethyl(4-(trifluoromethyl)benzyl)amino)-5-fluoro-7H-pyrrolo[2,3-d]pyrimidin-7-yl)methyl)-3-hydroxypiperidin-1-yl)acetamide] | 11
5.3 | – | NC(=O)CN1CC[C@@H](Cn2ccc3c(N(Cc4ccc(C(F)(F)F)cn4)C4CC4)ncnc32)[C@H](O)C1 (racemic) [Example P6-23, rac-2-((3R,4R)-4-((4-(cyclopropyl((5-(trifluoromethyl)pyridin-2-yl)methyl)amino)-7H-pyrrolo[2,3-d]pyrimidin-7-yl)methyl)-3-hydroxypiperidin-1-yl)acetamide] | 12
4.6 | – | CCN(Cc1ccc(C(F)(F)F)cc1)c1ncnc2c1ccn2C[C@@H]1CCN(CC(N)=O)C[C@H]1O (racemic) [Example P6-24, rac-2-((3R,4R)-4-((4-(ethyl(4-(trifluoromethyl)benzyl)amino)-7H-pyrrolo[2,3-d]pyrimidin-7-yl)methyl)-3-hydroxypiperidin-1-yl)acetamide] | 22
15 | – | CC(C)N(Cc1ccc(C(F)(F)F)cc1)c1ncnc2c1ccn2C[C@@H]1CCN(CC(N)=O)C[C@H]1O (racemic) [Example P6-25, rac-2-((3R,4R)-3-hydroxy-4-((4-(isopropyl(4-(trifluoromethyl)benzyl)amino)-7H-pyrrolo[2,3-d]pyrimidin-7-yl)methyl)piperidin-1-yl)acetamide] | 35
2 | – | NC(=O)C(CO)N1CC[C@@H](Cn2ccc3c(N(Cc4ccc(C(F)(F)F)cc4)C4CC4)ncnc32)[C@H](O)C1 (mixture of isomers) [Example P6-37, rac-2-((3R,4R)-4-((4-(Cyclopropyl(4-(trifluoromethyl)benzyl)amino)-7H-pyrrolo[2,3-d]pyrimidin-7-yl)methyl)-3-hydroxypiperidin-1-yl)-3-hydroxypropanamide] | 7
5.1 | – | NC(=O)CN1CC[C@@H](Cn2cnc3c(N(Cc4ccc(C(F)(F)F)cc4)C4CC4)ncnc32)[C@H](O)C1 (relative stereo) [P6-26″, rel-2-((3R,4R)-4-((6-(cyclopropyl(4-(trifluoromethyl)benzyl)amino)-9H-purin-9-yl)methyl)-3-hydroxypiperidin-1-yl)acetamide] | 21
12 | – | CCN(Cc1ccc(C(F)(F)F)cn1)c1ncnc2c1ccn2C[C@@H]1CCN(CC(N)=O)C[C@H]1O (relative stereo) [P6-27″, rel-2-((3R,4R)-4-((4-(ethyl((5-(trifluoromethyl)pyridin-2-yl)methyl)amino)-7H-pyrrolo[2,3-d]pyrimidin-7-yl)methyl)-3-hydroxypiperidin-1-yl)acetamide] | 70
279 | – | N#Cc1cn(CC2CCN(CC(N)=O)CC2)c2ncnc(N(Cc3ccc(C(F)(F)F)cc3)C3CC3)c12 [Example P6-07, 2-(4-((5-cyano-4-(cyclopropyl(4-(trifluoromethyl)benzyl)amino)-7H-pyrrolo[2,3-d]pyrimidin-7-yl)methyl)piperidin-1-yl)acetamide] | –
231 | – | CC(C(N)=O)N1CCC(Cn2cnc3c(N(Cc4ccc(C(F)(F)F)cc4)C4CC4)ncnc32)CC1 (stereo not shown) [Example P6-08, 2-(4-((6-(cyclopropyl(4-(trifluoromethyl)benzyl)amino)-9H-purin-9-yl)methyl)piperidin-1-yl)propanamide] | –
> 1000 | – | CC(C)(C(N)=O)N1CCC(Cn2cnc3c(N(Cc4ccc(C(F)(F)F)cc4)C4CC4)ncnc32)CC1 [Example P6-09, 2-(4-((6-(cyclopropyl(4-(trifluoromethyl)benzyl)amino)-9H-purin-9-yl)methyl)piperidin-1-yl)-2-methylpropanamide] | –
93 | – | NC(=O)CN1CCC(Cn2cc(F)c3c(N(Cc4ccc(C(F)(F)F)nc4)C4CC4)ncnc32)CC1 [Example P6-10, 2-(4-((4-(cyclopropyl((6-(trifluoromethyl)pyridin-3-yl)methyl)amino)-5-fluoro-7H-pyrrolo[2,3-d]pyrimidin-7-yl)methyl)piperidin-1-yl)acetamide] | –
330 | < 500 | NC(=O)CN1CCC(Cn2ccc3c(N4CCOC[C@@H]4c4ccc(C(F)(F)F)cn4)ncnc32)CC1 [Example Q4-2, (S)-2-(4-((4-(3-(5-(trifluoromethyl)pyridin-2-yl)morpholino)-7H-pyrrolo[2,3-d]pyrimidin-7-yl)methyl)piperidin-1-yl)acetamide] | –
